Measurements published in PubChem BioAssay (NCI).
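Step 1: Grow cells in 96-well plates. Step 2: Expose to compound for 48 hours at 5 concentrations. Step 3: Interpolate endpoints linearly; if unreached, use highest concentration. The concentration for 50% growth inhibition is given as GI50. TGI is the concentration that stops growth completely.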

Key:
Test in all cases: NCI-60 cell line screen, 48 h
[1] = system: 786-0 renal
[2] = system: A549 NSCLC
[3] = system: COLO 205 colon
[4] = system: HCT-15 colon
[5] = system: K-562 leukemia
[6] = system: KM12 colon
[7] = system: MOLT-4 leukemia
[8] = system: RXF 393 renal
[9] = system: SW-620 colon
[10] = system: SK-MEL-5 melanoma

`CCCCCCCCCCCC(=O)C1=C(O)C(O)CCC1=O` (stereo not given) was tested, and the TGI [1] was > 100 µM, the TGI [2] was > 100 µM and the TGI [3] was 28.9 µM. For the same compound, the TGI [4] was 27.3 µM, the TGI [5] was 43 µM and the TGI [6] was 43.2 µM. The TGI [7] was 60.3 µM, the TGI [8] was > 100 µM and the TGI [9] was 60 µM.

With `NC(N)=N/N=C/c1c(-c2cc(Cl)sc2Cl)nc2n1CCS2` the GI50 [1] was 8.12 µM, the TGI [1] was 15.6 µM and the GI50 [2] was 9.57 µM. It also gave a TGI [2] of 22 µM, a GI50 [4] of 9 µM and a TGI [4] of 16.6 µM. It also gave a GI50 [5] of 16 µM, a TGI [5] of 43.7 µM and a GI50 [6] of 8.33 µM. It also gave a TGI [6] of 16.1 µM, a GI50 [7] of 10.4 µM and a TGI [7] of 26.8 µM. For the same compound, the GI50 [8] was 10.8 µM, the TGI [8] was 22.4 µM and the GI50 [10] was 10.1 µM. It also gave a TGI [10] of 18.2 µM, a GI50 [9] of 10.5 µM and a TGI [9] of 20.5 µM.

With `O=C(O)c1[nH]c(C(=O)O)c(CC(F)(F)C(F)(F)C(F)(F)F)c1CC(F)(F)C(F)(F)C(F)(F)F` the TGI [1] was > 100 µM, the TGI [2] was > 100 µM and the TGI [3] was > 100 µM. The TGI [4] was > 100 µM, the TGI [5] was > 100 µM and the TGI [6] was > 100 µM. For the same compound, the TGI [8] was > 100 µM, the TGI [10] was > 100 µM and the TGI [9] was > 100 µM.

For `Cn1c(=O)c2c(nc3n2CCC(=O)N3)n(C)c1=O`, the TGI [1] was > 100 µM, the TGI [2] was > 100 µM and the TGI [3] was > 100 µM. For the same compound, the TGI [5] was > 100 µM, the TGI [6] was > 100 µM and the TGI [7] was > 100 µM. For the same compound, the TGI [8] was > 100 µM, the TGI [10] was > 100 µM and the TGI [9] was > 100 µM.

With `c1cncc(C2c3[nH]c4ccccc4c3CCN2CCN2CCCCC2)c1` (stereo not given) the TGI [1] was > 100 µM, the TGI [2] was > 100 µM and the TGI [4] was > 100 µM. The TGI [5] was > 100 µM, the TGI [6] was > 100 µM and the TGI [7] was > 100 µM. The TGI [10] was > 100 µM and the TGI [9] was > 100 µM.

For `Cc1ccc(S(=O)(=O)ON/N=C2/C3OC3[C@@H]3CCCC[C@H]23)cc1` (stereo not given in full), the TGI [1] was > 100 µM, the TGI [2] was > 100 µM and the TGI [3] was > 100 µM. The TGI [4] was > 100 µM, the TGI [5] was > 100 µM and the TGI [6] was > 100 µM. The TGI [7] was > 100 µM, the TGI [8] was > 100 µM and the TGI [9] was > 100 µM.

`CCOC(=O)/C(C1=CC(=O)C(=O)c2ccccc21)=C(/C)NCc1ccccc1` showed a GI50 [1] of 1.29 µM, a TGI [1] of 2.88 µM and a GI50 [2] of 2.4 µM. For the same compound, the TGI [2] was 6.42 µM, the GI50 [3] was 2.01 µM and the TGI [3] was 4.54 µM. It also gave a GI50 [4] of 1.75 µM, a TGI [4] of 3.6 µM and a GI50 [5] of 1.3 µM. It also gave a TGI [5] of 3.24 µM, a GI50 [7] of 0.182 µM and a TGI [7] of 0.434 µM. It also gave a GI50 [8] of 0.186 µM, a TGI [8] of 1.73 µM and a GI50 [10] of 1.78 µM. For the same compound, the TGI [10] was 3.38 µM, the GI50 [9] was 1.64 µM and the TGI [9] was 3.3 µM.

For `CN(C)CCNC(=O)c1cccc(CO)c1[N+](=O)[O-]`, the TGI [1] was > 100 µM, the TGI [2] was > 100 µM and the TGI [3] was > 100 µM. The TGI [4] was > 100 µM, the TGI [5] was > 100 µM and the TGI [6] was > 100 µM. For the same compound, the TGI [7] was > 100 µM, the TGI [10] was > 100 µM and the TGI [9] was > 100 µM.

`OC1CCC(C2C3CCCCC3C3CCCCC3C2C2CCC(O)CC2)CC1` (stereo not given) was tested, and the TGI [1] was > 100 µM, the TGI [2] was > 100 µM and the TGI [4] was 6.14 µM. The TGI [5] was > 100 µM, the TGI [6] was 15.5 µM and the TGI [7] was > 100 µM. It also gave a TGI [8] of 7.06 µM, a TGI [10] of 23.5 µM and a TGI [9] of 19.6 µM.

In the case of `CCCCCCCCCCCCC(SCCNC(=O)CCNC(=O)C(O)C(C)(C)COP(=O)(O)OP(=O)(O)OCC1OC(n2cnc3c(N)ncnc32)C(O)C1OP(=O)(O)O)C(=O)NCC(N)=O` (stereo not given), the TGI [1] is reported as > 100 µM, the TGI [2] is reported as > 100 µM and the TGI [3] is reported as > 100 µM. The TGI [4] was > 100 µM, the TGI [6] was > 100 µM and the TGI [8] was > 100 µM. The TGI [10] was > 100 µM and the TGI [9] was > 100 µM.

In the case of `c1cc2c(cnc3cscc32)s1`, the TGI [1] is reported as > 100 µM, the TGI [2] is reported as > 100 µM and the TGI [4] is reported as > 100 µM. For the same compound, the TGI [5] was > 100 µM, the TGI [6] was > 100 µM and the TGI [7] was > 100 µM. The TGI [8] was > 100 µM, the TGI [10] was > 100 µM and the TGI [9] was > 100 µM.

With `COC1C(=O)CCC2(CO2)C1(O)C1(C)OC1CCC(C)C` (stereo not given) the TGI [1] was > 100 µM, the TGI [3] was > 100 µM and the TGI [4] was > 100 µM. The TGI [5] was > 100 µM, the TGI [6] was > 100 µM and the TGI [7] was > 100 µM. For the same compound, the TGI [8] was > 100 µM, the TGI [10] was > 100 µM and the TGI [9] was > 100 µM.

`COC(=O)/C(=N/NC(C)(C)C)C(C(=O)C=C(C)C)C(=O)C(=O)Nc1ccc(Cl)cc1C` (stereo not given) was tested, and the TGI [1] was > 100 µM, the TGI [2] was > 100 µM and the TGI [3] was > 100 µM. For the same compound, the TGI [4] was > 100 µM, the TGI [5] was > 100 µM and the TGI [6] was > 100 µM. The TGI [7] was > 100 µM, the TGI [10] was > 100 µM and the TGI [9] was > 100 µM.

`CN(C)CCNC(=O)c1cc([N+](=O)[O-])cc2ccc(-c3ccccc3)nc12` was tested, and the TGI [1] was 94.3 µM, the TGI [2] was 28 µM and the TGI [3] was 21.6 µM. For the same compound, the TGI [4] was > 56.6 µM, the TGI [5] was 54.1 µM and the TGI [6] was 49.6 µM. For the same compound, the TGI [8] was 22.8 µM, the TGI [10] was 11.8 µM and the TGI [9] was > 38.7 µM.

For `CC(C)(C)N=CN1CCC(C(c2ccccc2)c2ccccc2)CC1`, the TGI [1] was > 100 µM, the TGI [2] was > 100 µM and the TGI [3] was 34.2 µM. For the same compound, the TGI [4] was > 100 µM, the TGI [5] was > 100 µM and the TGI [6] was > 100 µM. The TGI [8] was 98.7 µM, the TGI [10] was > 100 µM and the TGI [9] was > 100 µM.

In the case of `Cc1c2ncccc2c(C)c2c1[nH]c1ccccc12`, the TGI [1] is reported as 23.2 µM, the TGI [2] is reported as 21.1 µM and the TGI [3] is reported as 26.9 µM. It also gave a TGI [4] of 54.3 µM, a TGI [5] of 41.7 µM and a TGI [6] of 29 µM. For the same compound, the TGI [7] was 6.5 µM, the TGI [8] was 25.9 µM and the TGI [9] was 28 µM.

`O=C(N=Nc1c(O)[nH]c2ccccc12)c1ccccc1O` was tested, and the TGI [1] was > 100 µM, the TGI [2] was > 100 µM and the TGI [3] was > 100 µM. For the same compound, the TGI [4] was > 100 µM, the TGI [5] was > 100 µM and the TGI [6] was > 100 µM. The TGI [7] was > 100 µM, the TGI [8] was > 100 µM and the TGI [9] was > 100 µM.

With `CCOC(OC1=C(C#N)CCC1)C(CC)[Se]c1ccccc1` (stereo not given) the TGI [1] was 28.2 µM, the TGI [2] was > 100 µM and the TGI [3] was 53.9 µM. The TGI [4] was > 100 µM, the TGI [5] was > 100 µM and the TGI [6] was > 100 µM. For the same compound, the TGI [7] was 48.8 µM, the TGI [8] was 38.7 µM and the TGI [10] was 31.6 µM.

`c1c[nH]c(Cc2ncc(Cc3cnc[nH]3)[nH]2)n1` was tested, and the TGI [1] was 65.8 µM, the TGI [2] was > 100 µM and the TGI [3] was > 100 µM. For the same compound, the TGI [4] was > 100 µM, the TGI [5] was > 100 µM and the TGI [6] was > 100 µM. For the same compound, the TGI [7] was > 100 µM, the TGI [10] was 59.1 µM and the TGI [9] was > 100 µM.

For `CCN(CC)C(=S)SSC1CCCCC1`, the GI50 [1] was 19.6 µM, the TGI [1] was 35 µM and the GI50 [2] was 30.9 µM. It also gave a TGI [2] of 82.6 µM, a GI50 [4] of 19.7 µM and a TGI [4] of 46.4 µM. For the same compound, the GI50 [5] was 11.3 µM, the TGI [5] was 38.8 µM and the GI50 [6] was 13 µM. For the same compound, the TGI [6] was 28.8 µM, the GI50 [7] was 11.4 µM and the TGI [7] was 43.5 µM. For the same compound, the GI50 [8] was 16.4 µM, the TGI [8] was 31.2 µM and the GI50 [10] was 12.5 µM. The TGI [10] was 26.3 µM, the GI50 [9] was 11.7 µM and the TGI [9] was 26.2 µM.
